Reference: patent US9023855B2, “Compounds” (Chiesi Farmaceutici S.p.A., priority 2011, dated 2015)

Target: T1, human neutrophil elastase (HNE) (Homo sapiens, UniProt P08246)
T1 construct: purchased Sigma E8140
T1 sequence (P08246 30-267): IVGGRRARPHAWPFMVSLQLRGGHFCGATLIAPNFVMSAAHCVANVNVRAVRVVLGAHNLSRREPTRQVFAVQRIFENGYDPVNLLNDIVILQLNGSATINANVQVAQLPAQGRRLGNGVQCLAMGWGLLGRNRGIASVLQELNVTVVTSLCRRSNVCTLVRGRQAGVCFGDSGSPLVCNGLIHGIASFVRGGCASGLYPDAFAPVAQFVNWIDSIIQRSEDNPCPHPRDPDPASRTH
Experiment: HNE enzyme assay (fluorogenic peptide substrate MeOSuc-Ala-Ala-Pro-Val-AMC)
Assay type: biochemical
Conditions: human leukocyte elastase, substrate 100 μM, 25° C., 30 minutes, at least two separate experiments; read-out: HNE inhibition (IC50 values)
Description: Compounds of this invention were tested for potency in a human neutrophil elastase (HNE) enzyme activity assay.
Assays were performed in 96-well plates in a total assay volume of 100 μl. The final concentration of elastase enzyme (human leukocyte elastase, Sigma E8140) was 0.0036 units/well […]. The peptide substrate (MeOSuc-Ala-Ala-Pro-Val-AMC, Calbiochem #324740) was used at a final concentration of 100 μM. The final concentration of DMSO was 1% in the assay buffer (0.05M Tris.HCl, 0.1M NaCl, 0.1M CaCl2, 0.0005% brij-35, pH 7.5). The enzymatic reaction was started by addition of the enzyme and incubated at 25° C. for 30 minutes. After incubation, the reaction was stopped by addition of soybean trypsin inhibitor (Sigma T9003) at a final concentration of 50 μg/well. Fluorescence was measured using a Molecular Devices fluorescence plate reader using 380 nm excitation and 460 nm emission wavelengths.
A dose response to each compound was performed, and the effect of the compound in each experiment was expressed as a percentage inhibition of the control enzyme fluorescence. Dose response curves were plotted and compound potency (IC50) was determined. Compounds were tested in at least two separate experiments.

Compound	IC50 [nM]
COC(=O)C1=C(C)N(c2cccc(C(F)(F)F)c2)c2n[nH]c(=O)n2C1c1ccc(C#N)cc1 (stereo not shown) [Example 1, 5-(4-Cyanophenyl)-7-methyl-3-oxo-8-(3-trifluoromethylphenyl)-2,3,5,8-tetrahydro-[1,2,4]triazolo[4,3-a]pyrimidine-6-carboxylic acid methyl ester]	< 20
COC(=O)C1=C(C)N(c2cccc(C(F)(F)F)c2)c2nn(CC(N)=O)c(=O)n2C1c1ccc(C#N)cc1 (stereo not shown) [Example 2, 2-Carbamoylmethyl-5-(4-cyanophenyl)-7-methyl-3-oxo-8-(3-trifluoromethylphenyl)-2,3,5,8-tetrahydro-[1,2,4]triazolo[4,3-a]pyrimidine-6-carboxylic acid methyl ester]	< 20
COC(=O)C1=C(C)N(c2cccc(C(F)(F)F)c2)c2nn(CCCN(C)C)c(=O)n2C1c1ccc(C#N)cc1 (stereo not shown) [Example 3]	< 20
COC(=O)C1=C(C)N(c2cccc(C(F)(F)F)c2)c2nn(Cc3ccccc3)c(=O)n2C1c1ccc(C#N)cc1 (stereo not shown) [Example 4, 2-Benzyl-5-(4-cyanophenyl)-7-methyl-3-oxo-8-(3-trifluoromethyl-phenyl)-2,3,5,8-tetrahydro-[1,2,4]triazolo[4,3-a]pyrimidine-6-carboxylic acid methyl ester]	20 to 100
C=CCn1nc2n(c1=O)C(c1ccc(C#N)cc1)C(C(=O)OC)=C(C)N2c1cccc(C(F)(F)F)c1 (stereo not shown) [Example 5, 2-Allyl-5-(4-cyanophenyl)-7-methyl-3-oxo-8-(3-trifluoromethyl-phenyl)-2,3,5,8-tetrahydro-[1,2,4]triazolo[4,3-a]pyrimidine-6-carboxylic acid methyl ester]	< 20
COC(=O)C1=C(C)N(c2cccc(C(F)(F)F)c2)c2nn(C)c(=O)n2C1c1ccc(C#N)cc1 (stereo not shown) [Example 6, 5-(4-Cyanophenyl)-2,7-dimethyl-3-oxo-8-(3-trifluoromethylphenyl)-2,3,5,8-tetrahydro-[1,2,4]triazolo[4,3-a]pyrimidine-6-carboxylic acid methyl ester]	< 20
CC1=C(C(=O)O)C(c2ccc(C#N)cc2)n2c(n[nH]c2=O)N1c1cccc(C(F)(F)F)c1 (stereo not shown) [Example 9, 5-(4-Cyano-phenyl)-7-methyl-3-oxo-8-(3-trifluoromethyl-phenyl)-2,3,5,8-tetrahydro-[1,2,4]triazolo[4,3-a]pyrimidine-6-carboxylic acid]	< 20
CC1=C(C(=O)OCCN(C)C)C(c2ccc(C#N)cc2)n2c(n[nH]c2=O)N1c1cccc(C(F)(F)F)c1 (stereo not shown) [Example 10, 5-(4-Cyano-phenyl)-7-methyl-3-oxo-8-(3-trifluoromethyl-phenyl)-2,3,5,8-tetrahydro-[1,2,4]triazolo[4,3-a]pyrimidine-6-carboxylic acid 2-dimethylamino-ethyl ester]	< 20
CC1=C(C(=O)OCCCN(C)C)C(c2ccc(C#N)cc2)n2c(n[nH]c2=O)N1c1cccc(C(F)(F)F)c1 (stereo not shown) [Example 11, 5-(4-Cyano-phenyl)-7-methyl-3-oxo-8-(3-trifluoromethyl-phenyl)-2,3,5,8-tetrahydro-[1,2,4]triazolo[4,3-a]pyrimidine-6-carboxylic acid 3-dimethylamino-propyl ester]	< 20
CCNC(=O)C1=C(C)N(c2cccc(C(F)(F)F)c2)c2n[nH]c(=O)n2C1c1ccc(C#N)cc1 (stereo not shown) [Example 12, 5-(4-Cyano-phenyl)-7-methyl-3-oxo-8-(3-trifluoromethyl-phenyl)-2,3,5,8-tetrahydro-[1,2,4]triazolo[4,3-a]pyrimidine-6-carboxylic acid ethylamide]	20 to 100
COC(=O)C1=C(C)N(c2cccc(C(F)(F)F)c2)c2n[nH]c(=O)n2C1c1ccc(C#N)cc1S(C)(=O)=O (stereo not shown) [Example 13, 5-(4-Cyano-2-methanesulfonyl-phenyl)-7-methyl-3-oxo-8-(3-trifluoromethyl-phenyl)-2,3,5,8-tetrahydro-[1,2,4]triazolo[4,3-a]pyrimidine-6-carboxylic acid methyl ester]	< 20
CC1=C(C#N)C(c2ccc(C#N)cc2)n2c(n[nH]c2=O)N1c1cccc(C(F)(F)F)c1 (stereo not shown) [Example 14, 5-(4-Cyano-phenyl)-7-methyl-3-oxo-8-(3-trifluoromethyl-phenyl)-2,3,5,8-tetrahydro-[1,2,4]triazolo[4,3-a]pyrimidine-6-carbonitrile]	< 20
COC(=O)C1=C(C)N(c2cccc(C(F)(F)F)c2)c2nn(-c3ccc(S(C)(=O)=O)cc3)c(=O)n2C1c1ccc(C#N)cc1 (stereo not shown) [Example 15, 5-(4-Cyano-phenyl)-2-(4-methanesulfonyl-phenyl)-7-methyl-3-oxo-8-(3-trifluoromethyl-phenyl)-2,3,5,8-tetrahydro-[1,2,4]triazolo[4,3-a]pyrimidine-6-carboxylic acid methyl ester]	< 20
COC(=O)C1=C(C)N(c2cccc(C(F)(F)F)c2)c2nn(CCCS(C)(=O)=O)c(=O)n2C1c1ccc(C#N)cc1 (stereo not shown) [Example 16, 5-(4-Cyano-phenyl)-2-(3-methanesulfonyl-propyl)-7-methyl-3-oxo-8-(3-trifluoromethyl-phenyl)-2,3,5,8-tetrahydro-[1,2,4]triazolo[4,3-a]pyrimidine-6-carboxylic acid methyl ester]	< 20

Results, then the molecule that gave them:

IC50 [nM]	Compound
< 20	COC(=O)C1=C(C)N(c2cccc(C(F)(F)F)c2)c2nn(Cc3ccc(S(C)(=O)=O)cc3)c(=O)n2[C@@H]1c1ccc(C#N)cc1 [Example 17, (R)-5-(4-Cyano-phenyl)-2-(4-methanesulfonyl-benzyl)-7-methyl-3-oxo-8-(3-trifluoromethyl-phenyl)-2,3,5,8-tetrahydro-[1,2,4]triazolo[4,3-a]pyrimidine-6-carboxylic acid methyl ester]
< 20	COC(=O)C1=C(C)N(c2cccc(C(F)(F)F)c2)c2nn(CCCS(C)(=O)=O)c(=O)n2[C@@H]1c1ccc(C#N)cc1 [Example 18, (R)-5-(4-Cyano-phenyl)-2-(3-methanesulfonyl-propyl)-7-methyl-3-oxo-8-(3-trifluoromethyl-phenyl)-2,3,5,8-tetrahydro-[1,2,4]triazolo[4,3-a]pyrimidine-6-carboxylic acid methyl ester]
20 to 100	COC(=O)C1=C(C)N(c2cccc(C(F)(F)F)c2)c2nn(S(=O)(=O)c3ccc(CN(C)CCN(C)C)cc3)c(=O)n2C1c1ccc(C#N)cc1 (stereo not shown) [Example 19, 5-(4-Cyano-phenyl)-2-(4-{[(2-dimethylamino-ethyl)-methyl-amino]-methyl}-benzenesulfonyl)-7-methyl-3-oxo-8-(3-trifluoromethyl-phenyl)-2,3,5,8-tetrahydro-[1,2,4]triazolo[4,3-a]pyrimidine-6-carboxylic acid methyl ester]
< 20	COC(=O)C1=C(C)N(c2cccc(C(F)(F)F)c2)c2nn(CCc3ccc(S(C)(=O)=O)cc3)c(=O)n2[C@@H]1c1ccc(C#N)cc1 [Example 20, (R)-5-(4-Cyano-phenyl)-2-[2-(4-methanesulfonyl-phenyl)-ethyl]-7-methyl-3-oxo-8-(3-trifluoromethyl-phenyl)-2,3,5,8-tetrahydro-[1,2,4]triazolo[4,3-a]pyrimidine-6-carboxylic acid methyl ester]
< 20	COC(=O)C1=C(C)N(c2cccc(C(F)(F)F)c2)c2nn(Cc3ccc(CN(C)C)cc3)c(=O)n2C1c1ccc(C#N)cc1 (stereo not shown) [Example 21, 5-(4-Cyano-phenyl)-2-(4-dimethylaminomethyl-benzyl)-7-methyl-3-oxo-8-(3-trifluoromethyl-phenyl)-2,3,5,8-tetrahydro-[1,2,4]triazolo[4,3-a]pyrimidine-6-carboxylic acid methyl ester]
< 20	COC(=O)C1=C(C)N(c2cccc(C(F)(F)F)c2)c2nn(Cc3ccc(C[N+](C)(C)C)cc3)c(=O)n2C1c1ccc(C#N)cc1 (stereo not shown) [Example 22, {4-[5-(4-Cyano-phenyl)-6-methoxycarbonyl-7-methyl-3-oxo-8-(3-trifluoromethyl-phenyl)-5,8-dihydro-[1,2,4]triazolo[4,3-a]pyrimidin-2-ylmethyl]-benzyl}-trimethyl-ammonium bromide]
< 20	COC(=O)C1=C(C)N(c2cccc(C(F)(F)F)c2)c2nn(Cc3ccc(S(C)(=O)=O)cn3)c(=O)n2C1c1ccc(C#N)cc1 (stereo not shown) [Example 23, 5-(4-Cyano-phenyl)-2-(5-methanesulfonyl-pyridin-2-ylmethyl)-7-methyl-3-oxo-8-(3-trifluoromethyl-phenyl)-2,3,5,8-tetrahydro-[1,2,4]triazolo[4,3-a]pyrimidine-6-carboxylic acid methyl ester]
< 20	COC(=O)C1=C(C)N(c2cccc(C(F)(F)F)c2)c2nn(CCCN3CCCC3=O)c(=O)n2C1c1ccc(C#N)cc1 (stereo not shown) [Example 24, 5-(4-Cyano-phenyl)-7-methyl-3-oxo-2-[3-(2-oxo-pyrrolidin-1-yl)-propyl]-8-(3-trifluoromethyl-phenyl)-2,3,5,8-tetrahydro-[1,2,4]triazolo[4,3-a]pyrimidine-6-carboxylic acid methyl ester]
